Data from patent US9981983B2, “Thienopyranones as kinase inhibitors” (SignalRx Pharmaceuticals, Inc., priority 2008, dated 2018).
Read-outs that look alike come from different tables or passages of the source.

Key:
Format in all cases: cell-based
[1] = test system: AKT Ser473 phosphorylation in PC3 (prostate cancer) Cell Line; assay: pAKT Ser473 ELISA in PC3 cells stimulated by Bv8, VEGF, IGF; conditions: Homo sapiens, PC-3, PC3, read-out: Concentration Required to Inhibit pAKT to Half-maximal Levels
Protocol: (§1) This was followed by the addition of IGF, VEGF and Bv8 to 0.1 μg/mL, 0.1 μg/mL and 2.5 μg/mL respectively for another 30 minutes before harvesting the cells and making cell lysates with RIPA buffer keeping on ice, pAKT levels were measured in duplicate samples with Cell Signaling's Ser473 pAKT ELISA kit. Optical density plate readings of pAKT levels were made at 450 nm (OD450 nm) and were normalized by total protein amount of the cell lysates. The dose of compound at which pAKT levels are reduced to 50% of the non-treatment level was calculated using GraphPad Prism4 software and is listed in Tables 4 and 5 below.

[2] = test system: AKT Ser473 phosphorylation in renal cell carcinoma (786-O) Cell Line; assay: pAKT Ser473 ELISA in 786-O cells stimulated by Bv8, VEGF, IGF; conditions: Homo sapiens, 786-0, 786-O, read-out: Concentration Required to Inhibit pAKT to Half-maximal Levels
Protocol: as §1

[3] = test system: K562 (CML); assay: Cell proliferation MTS assay, K562; conditions: Homo sapiens, 72 hours
Protocol: (§2) All cell lines were obtained from ATCC and cultured and plated according to ATCC recommendations. Cells were cultured in complete culture media containing 10% heat-inactivated fetal bovine serum (FBS, Mediatech, Inc.). For adherent cell lines, once cells reached 70% confluency, they were trypsinized and resuspended in phenol red free RPMI media (Mediatech, Inc.) plus 10% heat-inactivated FBS (assay buffer) and 100 μL aliquots were plated into each well of 96-well microtiter plates at a final density of 1,000-2,000 cells/well. Cells were incubated overnight at 37° C. in 5% CO2, and treated with test compounds on the next day. For suspension cell lines, cells were resuspended in assay buffer, plated into 96-well microtiter plates at a density of 10^4-10^5 cells/well/100 μL, and treatment was started on the same day. Cells were treated with vehicle (DMSO) and test compounds for 72 hours at concentration of 100, 70, 40, 20, 10, 5, 2.5, 1.25, 0.5 and 0.2 μM in four replicates at 37° C. in 5% CO2.

[4] = test system: HT29 (Colon); assay: Cell proliferation MTS assay, HT29; conditions: Homo sapiens, HT-29, 72 hours
Protocol: as §2

[5] = test system: PC3 (Prostate); assay: Cell proliferation MTS assay, PC3; conditions: 72 hours
Protocol: as §2

[6] = test system: 786-O cells; assay: Cellular proliferation (Example B method), 786-O; conditions: Homo sapiens, 786-0, renal cell carcinoma
Protocol: (§3) PC3 cells were obtained from the American Type Culture Collection (ATCC, Manassas, Va., Cat.# CRL-1435) Two thousand cells from the prostate cancer line PC3 were placed in 50 μL of complete RPMI 1640 media (Invitrogen, Carlsbad, Calif., Cat.#22400-105) with 10% fetal bovine serum (Invitrogen, Carlsbad, Calif., Cat.#10438-026) into each well of 96 well cell culture plates in a hexaplicate sampling pattern. A 50 μL aliquot of test compound (prepared from stock test compounds in DMSO diluted into media) was added to the appropriate well such that the final concentrations of test compound were 200, 40, 8, 1.6, 0.32, 0.064, 0.0128, 0.00256, and 0 μM and the final DMSO concentration was less than or equal to 0.2%.
(§4) The plates were incubated for 72 hours 37° C. in an atmosphere of 5% CO2. At the end of this time a 10 μL aliquot of WST solution (Roche Applied Science, Mannheim, Germany) was added into each of the wells. Cells were exposed to the WST solution for 4 hours. A SpectraMax Plus spectrophotometric plate reader (Molecular Devices, Sunnydale, Calif.) was then used to measure the optical density at 450 nm (OD450 nm). Sigmoidal curves were drawn for the dose responses and IC50 values were calculated using the software package GraphPad Prism4 (GraphPad Software, Inc., San Diego, Calif.).
(§5) Several other cancer cell lines were obtained from ATCC and grown according to their recommendations and treated with test compounds to obtain the concentration of test compound that inhibited the cellular proliferation by 50% of no-treatment controls. These IC50 values (μM) are listed in Table 7 below obtained by the methods described in Example B: […]

[7] = test system: SKMEL2 (Melanoma); assay: Cell proliferation MTS assay, SKMEL2; conditions: Homo sapiens, SK-MEL-2, 72 hours
Protocol: as §2

[8] = test system: BT-474 cells; assay: Cellular proliferation (Example B method), BT-474; conditions: Homo sapiens; BT-474, breast cancer
Protocol: as §3, §4, §5

O=c1cc(N2CCOCC2)oc2c(-c3ccc4c(c3)OCCO4)csc12 [Compound 28, 3-(2,3-dihydrobenzo[b][1,4]dioxin-6-yl)-5-morpholino-7H-thieno[3,2-b]pyran-7-one]
IC50 ([1]; stimulant Bv8): 116 nM | IC50 ([1]; stimulant IGF): 888 nM | IC50 ([1]; stimulant PBS): 229 nM | IC50 ([1]; stimulant VEGF): 152 nM | IC50 ([2]; stimulant Bv8): 380 nM | IC50 ([2]; stimulant IGF): 2600 nM | IC50 ([2]; stimulant PBS): 541 nM | IC50 ([2]; stimulant VEGF): 343 nM | IC50 [3]: 3200 nM | IC50 [4]: 2400 nM | IC50 [5]: 1220 nM | IC50 [6]: 3320 nM | IC50 [7]: 5200 nM | IC50 [8]: 3780 nM
